Assay results taken from patent publication US5607937A, “Piperazides of substituted phenylalanine derivatives as thrombin inhibitors” (priority 1993, dated 1997).

Columns and labels:
[1] = plasma concentration in rats after oral administration; assay type: in vivo; settings: rat
[2] = plasma concentration in rats after intravenous administration; assay type: in vivo; settings: rat
Experimental: A physiological NaCl solution of the substance to be tested was submitted to high pressure liquid chromatography (HPLC) in order to determine its characteristic substance-specific retention time with the chosen test conditions.
The substance to be tested was diluted in vitro in rat plasma. This solution was also submitted to HPLC to see whether the characteristic peak of the substance once again appeared at the substance-specific retention time.
Blood samples were taken at time intervals of 15 minutes, from which plasma samples were prepared by centrifugation; those samples were also submitted to HPLC to see whether the characteristic peak of the substance appeared again at the substance-specific retention time.
After administration, blood samples were taken from the test animals at time intervals from 2 to maximally 360 minutes and the blood level of the compounds to be tested was determined by HPLC.

tPA = tPA (Homo sapiens, UniProt P00750); test: inhibition of tPA, dissociation constant Ki
in vivo = settings: plasma, rat, intraduodenal 100 mg/kg
[3] = plasma concentration in rats after rectal administration; assay type: in vivo; settings: rat
[4] = tested on: coagulation in rat plasma; test: thrombin time in rat plasma after rectal application; assay type: in vivo
Experimental: (§1) After rectal administration of the compounds to be tested, the anticoagulant effect was determined in the plasma of experimental animals.

trypsin = biological target: T1, trypsin (Bos taurus, UniProt P00760); test: inhibition of trypsin, dissociation constant Ki; assay type: biochemical; parameters: thrombin and the related enzymes trypsin, plasmin, factor Xa, factor XIIa
T1 sequence (P00760 24-246): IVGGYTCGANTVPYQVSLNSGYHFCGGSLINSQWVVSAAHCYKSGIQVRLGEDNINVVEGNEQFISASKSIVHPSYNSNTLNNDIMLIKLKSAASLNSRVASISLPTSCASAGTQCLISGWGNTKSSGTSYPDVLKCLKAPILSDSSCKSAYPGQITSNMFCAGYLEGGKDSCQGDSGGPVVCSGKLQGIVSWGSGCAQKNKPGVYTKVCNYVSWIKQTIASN
Experimental: (§2) The biological activity of the compounds of the present invention was determined in vitro as well as in vivo.

[5] = tested on: coagulation in human plasma; test: thrombin time (TT) in human plasma
[6] = plasma level in the stasis-induced thrombosis study, rectal application; assay type: in vivo; settings: rat; for concentration at 0.5 h: 30 min; for concentration at 1 h: 60 min
Experimental: The antithrombotic activity of the compounds was determined in the rat on the model of the stasis-induced thrombosis according to Wessler et al. (J. Appl. Physiol. 14, 943-946, 1959). The thrombus was induced by serum 30 min after application of the inhibitor and macroscopically evaluated after 10 further min.
After rectal application, the compounds of the present invention are absorbed to an extent leading to antithrombotically active plasma levels. This has been shown with the model of the stasis-induced venous thrombosis in the rat according to Wessler et al. This method consisted in macroscopically evaluating thrombi induced by serum in jugular vein segments by means of a scale (0=liquid blood, 1=one or several small thrombi, 2=not fully closed vascular segment, 3=fully closed vascular segment). The antithrombotic effect is clearly dose-dependent.

[7] = concentration in rat plasma in the anticoagulant study after rectal application; assay type: in vivo; settings: for concentration at 0.5 h / concentration at 1 h / concentration at 2 h / concentration at 3 h: plasma; for concentration at 0.5 h: 30 min; for concentration at 1 h: 60 min; for concentration at 2 h: 120 min; for concentration at 3 h: 180 min; for Concentration in plasma: 0 min
plasmin = plasmin (Homo sapiens, UniProt P00747); test: inhibition of plasmin, dissociation constant Ki
[8] = tested on: coagulation in rat plasma; test: aPTT in rat plasma after rectal application; assay type: in vivo
Experimental: as §1

factor XIIa = biological target: T2, factor XIIa (Homo sapiens, UniProt P00748); test: inhibition of factor XIIa, dissociation constant Ki
T2 sequence (P00748 373-615 limits assumed): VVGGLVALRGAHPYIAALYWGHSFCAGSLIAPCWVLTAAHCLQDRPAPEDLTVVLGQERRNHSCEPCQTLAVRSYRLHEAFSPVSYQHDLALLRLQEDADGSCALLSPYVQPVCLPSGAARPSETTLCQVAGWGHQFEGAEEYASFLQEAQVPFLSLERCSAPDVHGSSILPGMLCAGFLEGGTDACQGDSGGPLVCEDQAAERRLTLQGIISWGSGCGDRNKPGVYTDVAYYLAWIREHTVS

glandular kallikrein = glandular kallikrein (Sus scrofa, UniProt P00752); test: inhibition of glandular kallikrein, dissociation constant Ki
[9] = tested on: coagulation in human plasma; test: prothrombin time (PT, Quick value) in human plasma
factor Xa = factor Xa (Bos taurus, UniProt P00743); test: inhibition of factor Xa, dissociation constant Ki; assay type: biochemical; settings: Table 1
Experimental: as §2

plasma kallikrein = plasma kallikrein (Homo sapiens, UniProt P03952); test: inhibition of plasma kallikrein, dissociation constant Ki
Sequence of plasma kallikrein (P03952 391-638 limits assumed, species assumed): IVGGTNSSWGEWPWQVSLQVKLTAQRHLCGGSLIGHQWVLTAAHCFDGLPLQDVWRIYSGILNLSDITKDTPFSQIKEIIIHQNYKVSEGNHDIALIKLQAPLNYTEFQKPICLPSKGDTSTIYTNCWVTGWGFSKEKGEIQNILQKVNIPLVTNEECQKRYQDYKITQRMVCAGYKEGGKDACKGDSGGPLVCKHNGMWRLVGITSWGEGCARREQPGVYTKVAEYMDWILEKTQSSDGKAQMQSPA
Sequence of plasma kallikrein (P03952 20-390 partner limits assumed, species assumed): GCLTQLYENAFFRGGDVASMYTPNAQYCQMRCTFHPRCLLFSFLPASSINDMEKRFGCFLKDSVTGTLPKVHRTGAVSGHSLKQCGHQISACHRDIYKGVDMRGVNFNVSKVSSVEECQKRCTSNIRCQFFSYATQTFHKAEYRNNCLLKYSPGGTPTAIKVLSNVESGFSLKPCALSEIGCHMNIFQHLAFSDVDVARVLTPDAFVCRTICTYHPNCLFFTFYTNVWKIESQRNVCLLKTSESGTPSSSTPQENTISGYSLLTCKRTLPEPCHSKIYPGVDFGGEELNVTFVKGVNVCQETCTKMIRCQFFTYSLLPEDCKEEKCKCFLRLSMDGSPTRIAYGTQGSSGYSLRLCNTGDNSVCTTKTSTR

Sequence of factor Xa (P00743 234-492 limits assumed): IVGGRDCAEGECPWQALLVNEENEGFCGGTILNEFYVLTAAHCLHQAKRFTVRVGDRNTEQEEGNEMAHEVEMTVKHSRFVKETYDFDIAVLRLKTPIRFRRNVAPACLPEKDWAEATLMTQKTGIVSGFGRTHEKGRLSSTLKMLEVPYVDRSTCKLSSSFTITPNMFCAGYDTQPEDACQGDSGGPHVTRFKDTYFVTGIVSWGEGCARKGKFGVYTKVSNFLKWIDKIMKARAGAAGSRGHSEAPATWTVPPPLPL
Sequence of factor Xa (P00743 41-180 partner limits assumed): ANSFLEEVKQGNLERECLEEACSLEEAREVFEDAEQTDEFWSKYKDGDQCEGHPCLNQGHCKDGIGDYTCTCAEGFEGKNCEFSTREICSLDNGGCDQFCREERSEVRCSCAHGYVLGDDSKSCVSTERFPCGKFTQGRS
Sequence of glandular kallikrein (P00752 8-246): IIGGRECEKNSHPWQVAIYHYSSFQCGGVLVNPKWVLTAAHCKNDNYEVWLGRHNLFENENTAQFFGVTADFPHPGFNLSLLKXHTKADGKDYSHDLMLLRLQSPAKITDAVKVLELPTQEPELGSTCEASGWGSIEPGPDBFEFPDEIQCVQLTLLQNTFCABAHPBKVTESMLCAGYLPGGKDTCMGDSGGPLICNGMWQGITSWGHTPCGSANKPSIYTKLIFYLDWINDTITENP
Sequence of tPA (P00750 36-562): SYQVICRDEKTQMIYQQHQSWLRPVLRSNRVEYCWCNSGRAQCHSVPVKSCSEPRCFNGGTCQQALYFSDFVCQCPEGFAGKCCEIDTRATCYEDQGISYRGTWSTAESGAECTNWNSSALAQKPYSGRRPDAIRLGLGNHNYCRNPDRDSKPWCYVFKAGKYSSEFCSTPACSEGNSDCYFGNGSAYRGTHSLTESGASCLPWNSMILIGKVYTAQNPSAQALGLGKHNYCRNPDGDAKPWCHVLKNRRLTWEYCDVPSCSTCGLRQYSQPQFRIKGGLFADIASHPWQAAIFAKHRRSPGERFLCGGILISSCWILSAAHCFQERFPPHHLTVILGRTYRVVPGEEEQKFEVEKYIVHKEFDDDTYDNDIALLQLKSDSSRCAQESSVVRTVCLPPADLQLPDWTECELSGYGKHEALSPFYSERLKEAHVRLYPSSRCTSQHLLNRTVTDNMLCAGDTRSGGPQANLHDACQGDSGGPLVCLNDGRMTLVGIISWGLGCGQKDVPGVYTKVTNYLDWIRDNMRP
Sequence of plasmin (P00747 581-810 limits assumed): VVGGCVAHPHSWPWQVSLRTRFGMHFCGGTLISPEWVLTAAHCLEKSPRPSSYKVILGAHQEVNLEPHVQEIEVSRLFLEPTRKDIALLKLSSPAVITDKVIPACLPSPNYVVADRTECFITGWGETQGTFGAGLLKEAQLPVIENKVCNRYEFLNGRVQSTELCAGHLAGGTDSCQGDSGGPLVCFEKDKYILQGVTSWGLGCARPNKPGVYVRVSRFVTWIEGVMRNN
Sequence of plasmin (P00747 97-580 partner limits assumed): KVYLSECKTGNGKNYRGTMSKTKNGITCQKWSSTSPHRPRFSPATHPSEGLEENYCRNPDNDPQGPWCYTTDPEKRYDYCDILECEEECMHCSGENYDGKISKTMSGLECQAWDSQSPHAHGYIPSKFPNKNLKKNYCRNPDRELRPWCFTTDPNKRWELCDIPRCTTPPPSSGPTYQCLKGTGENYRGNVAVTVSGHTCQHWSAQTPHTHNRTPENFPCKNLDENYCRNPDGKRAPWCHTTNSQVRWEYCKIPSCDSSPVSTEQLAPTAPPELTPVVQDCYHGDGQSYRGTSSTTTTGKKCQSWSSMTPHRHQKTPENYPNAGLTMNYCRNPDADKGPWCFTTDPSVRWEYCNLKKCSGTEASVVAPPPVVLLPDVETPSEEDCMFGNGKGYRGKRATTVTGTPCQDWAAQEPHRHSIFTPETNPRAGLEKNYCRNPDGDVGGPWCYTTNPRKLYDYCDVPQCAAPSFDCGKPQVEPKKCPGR

## CC(=O)N1CCN(C(=O)[C@H](Cc2cccc(C(=N)N)c2)NS(=O)(=O)c2ccc3ccccc3c2)CC1.Cl [Compound 2, Nα-(2-naphthylsulfonyl)-(L)-3-amidinophenylalanine-4-acetylpiperazide hydrochloride]
[1]; plasma, oral 50 mg/kg, 30 min
  concentration at 0.5 h: 1200 ng/mL
[1]; plasma, oral 50 mg/kg, 60 min
  concentration at 1 h: 873 ng/mL
[1]; plasma, oral 50 mg/kg, 120 min
  concentration at 2 h: 333 ng/mL
[1]; plasma, oral 50 mg/kg, 180 min
  concentration at 3 h: 124 ng/mL
[1]; plasma, oral 50 mg/kg, 240 min
  concentration at 4 h: 44 ng/mL
[1]; plasma, oral 50 mg/kg, 300 min
  concentration at 5 h: 46 ng/mL
[1]; oral
  resorption in words: only slightly resorbed
[2]; plasma, iv, i.v. 1 mg/kg, 5 min
  concentration at 5 min: 780 ng/mL
[2]; plasma, iv, i.v. 1 mg/kg, 15 min
  concentration at 0.25 h: 224 ng/mL
[2]; plasma, iv, i.v. 1 mg/kg, 30 min
  concentration at 0.5 h: 95 ng/mL
[2]; plasma, iv, i.v. 1 mg/kg, 60 min
  concentration at 1 h: 38 ng/mL
[2]; plasma, iv, i.v. 1 mg/kg, 120 min
  concentration at 2 h: 12 ng/mL
[2]; plasma, iv, i.v. 1 mg/kg, 180 min
  concentration at 3 h: 10 ng/mL
[2]; i.v.
  elimination in words: eliminated at comparable rate
tPA
  Ki: 440 µM
In vivo; 30 min
  concentration at 0.5 h: 21700 ng/mL
In vivo; 60 min
  concentration at 1 h: 15200 ng/mL
In vivo; 120 min
  concentration at 2 h: 4280 ng/mL
In vivo; 180 min
  concentration at 3 h: 2600 ng/mL
In vivo; 240 min
  concentration at 4 h: 2180 ng/mL
In vivo; 300 min
  concentration at 5 h: 2200 ng/mL
In vivo; 360 min
  concentration at 6 h: 2850 ng/mL
[3]; plasma, rectal 100 mg/kg, 30 min
  concentration at 0.5 h: 32400 ng/mL
[3]; plasma, rectal 100 mg/kg, 60 min
  concentration at 1 h: 23100 ng/mL
[3]; plasma, rectal 100 mg/kg, 120 min
  concentration at 2 h: 5300 ng/mL
[3]; plasma, rectal 100 mg/kg, 180 min
  concentration at 3 h: 2700 ng/mL
[3]; plasma, rectal 100 mg/kg, 240 min
  concentration at 4 h: 1260 ng/mL
[3]; plasma, rectal 100 mg/kg, 300 min
  concentration at 5 h: 810 ng/mL
[3]; plasma, rectal 100 mg/kg, 360 min
  concentration at 6 h: 508 ng/mL
[3]; rectal
  detectable in plasma after rectal administration: ≥ 6 h
  detection/blood levels in words: absorbed by the intestine in particular after rectal administration to rats
[4]; rectal 5 mg/kg, 0 min
  Clotting time, Thrombin time: 32 s
[4]; rectal 5 mg/kg, 30 min
  Clotting time, Thrombin time: > 300 s
[4]; rectal 5 mg/kg, 60 min
  Clotting time, Thrombin time: 224 s
[4]; rectal 5 mg/kg, 120 min
  Clotting time, Thrombin time: 176 s
[4]; rectal 5 mg/kg, 180 min
  Clotting time, Thrombin time: 107 s
[4]; rectal 20 mg/kg, 0 min
  Clotting time, Thrombin time: 64 s
[4]; rectal 20 mg/kg, 30 min
  Clotting time, Thrombin time: > 300 s
[4]; rectal 20 mg/kg, 60 min
  Clotting time, Thrombin time: > 300 s
[4]; rectal 20 mg/kg, 120 min
  Clotting time, Thrombin time: > 300 s
[4]; rectal 20 mg/kg, 180 min
  Clotting time, Thrombin time: > 300 s
trypsin
  Ki: 0.044 µM
[5]
  Concentr. to double the Thrombin time: 0.055 µmol/L
  concentration to double the TT: less than 10^-7 mol/1
[6]; rectal 5 mg/kg
  concentration at 0.5 h: 228 ng/mL
  concentration at 1 h: 160 ng/mL
[6]; rectal 20 mg/kg
  concentration at 0.5 h: 1620 ng/mL
  concentration at 1 h: 998 ng/mL
[6]; rectal 100 mg/kg
  concentration at 0.5 h: 28700 ng/mL
  concentration at 1 h: 16100 ng/mL
[7]; rectal 5 mg/kg
  concentration at 0.5 h: 296 ng/mL
  concentration at 1 h: 160 ng/mL
  concentration at 2 h: 60 ng/mL
  concentration at 3 h: 40 ng/mL
  Concentration in plasma: 0 ng/mL
[7]; rectal 20 mg/kg
  concentration at 0.5 h: 5440 ng/mL
  concentration at 1 h: 2090 ng/mL
  concentration at 2 h: 812 ng/mL
  concentration at 3 h: 660 ng/mL
  Concentration in plasma: 0 ng/mL
plasmin
  Ki: 5.4 µM
[8]; rectal 5 mg/kg, 0 min
  Clotting time, aPTT: 22.5 s
[8]; rectal 5 mg/kg, 30 min
  Clotting time, aPTT: 37 s
[8]; rectal 5 mg/kg, 60 min
  Clotting time, aPTT: 33 s
[8]; rectal 5 mg/kg, 120 min
  Clotting time, aPTT: 30 s
[8]; rectal 5 mg/kg, 180 min
  Clotting time, aPTT: 26.4 s
[8]; rectal 20 mg/kg, 0 min
  Clotting time, aPTT: 28 s
[8]; rectal 20 mg/kg, 30 min
  Clotting time, aPTT: 120 s
[8]; rectal 20 mg/kg, 60 min
  Clotting time, aPTT: 87 s
[8]; rectal 20 mg/kg, 120 min
  Clotting time, aPTT: 59 s
[8]; rectal 20 mg/kg, 180 min
  Clotting time, aPTT: 50 s
Factor XIIa
  Ki: 150 µM
Glandular kallikrein
  Ki: > 1000 µM
[9]
  Concentr. to double the Prothrombin time: 0.90 µmol/L
  concentration to double the PT: ≤ 1 μmol/1
Factor Xa
  Ki: 35 µM
Plasma kallikrein
  Ki: 15 µM
